In patent publication US9902716B2, “Fluorinated benzofuranyl-pyrimidine derivatives containing a sulfone group” (Bayer Pharma Aktiengesellschaft, priority 2014, dated 2018):
pIC50: −log10 of the molar value.

Assays:
[1] = target: T1, CDK2/CycE (Homo sapiens, UniProt P24941); assay: CDK2/CycE kinase assay (Method 2a, TR-FRET); type: biochemical; settings: 10 μM ATP
T1 construct: GST; purchased ProQinase GmbH (Freiburg, Germany); host or cells: insect cells (Sf9)
Source text: 2a. CDK2/CycE Kinase Assay:
CDK2/CycE-inhibitory activity of compounds of the present invention was quantified employing the CDK2/CycE TR-FRET assay as described in the following paragraphs:
(§1) Recombinant fusion proteins of GST and human CDK2 and of GST and human CycE, expressed in insect cells (Sf9) and purified by Glutathion-Sepharose affinity chromatography, were purchased from ProQinase GmbH (Freiburg, Germany). As substrate for the kinase reaction biotinylated peptide biotin-Ttds-YISPLKSPYKISEG (C-terminus in amid form) was used which can be purchased e.g. form the company JERINI Peptide Technologies (Berlin, Germany).
(§2) For the assay 50 nl of a 100 fold concentrated solution of the test compound in DMSO was pipetted into a black low volume 384 well microtiter plate (Greiner Bio-One, Frickenhausen, Germany), 2 μl of a solution of CDK2/CycE in aqueous assay buffer [50 mM Tris/HCl pH 8.0, 10 mM MgCl2, 1.0 mM dithiothreitol, 0.1 mM sodium ortho-vanadate, 0.01% (v/v) Nonidet-P40 (Sigma)] were added and the mixture was incubated for 15 min at 22° C. to allow pre-binding of the test compounds to the enzyme before the start of the kinase reaction. Then the kinase reaction was started by the addition of 3 μl of a solution of adenosine-tri-phosphate (ATP, 16.7 μM=> final conc. in the 5 μl assay volume is 10 μM) and substrate (1.25 μM=> final conc. in the 5 μl assay volume is 0.75 μM) in assay buffer and the resulting mixture was incubated for a reaction time of 25 min at 22° C. […]
(§3) The resulting mixture was incubated 1 h at 22° C. to allow the formation of complex between the phosphorylated biotinylated peptide and the detection reagents. Subsequently the amount of phosphorylated substrate was evaluated by measurement of the resonance energy transfer from the Euchelate to the streptavidine-XL. Therefore, the fluorescence emissions at 620 nm and 665 nm after excitation at 350 nm was measured in a TR-FRET reader, e.g. a Rubystar (BMG Labtechnologies, Offenburg, Germany) or a Viewlux (Perkin-Elmer). […]

[2] = target: T1, CDK2/CycE; assay: CDK2/CycE high ATP kinase assay (Method 2b, TR-FRET); type: biochemical; settings: 2 mM ATP
Procedure: 2b. CDK2/CycE High ATP Kinase Assay:
CDK2/CycE-inhibitory activity of compounds of the present invention at 2 mM adenosine-tri-phosphate (ATP) was quantified employing the CDK2/CycE TR-FRET (TR-FRET=Time Resolved Fluorescence Energy Transfer) assay as described in the following paragraphs.
as §1, with “were purchase” for “were purchased”, “JERINI peptide technologies” for “JERINI Peptide Technologies”
as §2, with “ATP (3.33 mM=>” for “of adenosine-tri-phosphate (ATP, 16.7 μM=>”, “2 mM)” for “10 μM)”
as §3, with “nm wer” for “nm was”

pIC50 [1]	pIC50 [2]	SMILES
6.76	5.88	CS(=O)(=O)Cc1cccc(Nc2ncc(F)c(-c3ccc(F)c4ccoc34)n2)c1 [Example 1, 5-Fluoro-4-(4-fluoro-1-benzofuran-7-yl)-N-{3-[(methylsulfonyl)methyl]-phenyl}pyrimidin-2-amine]
6.95	6.04	CCS(=O)(=O)Cc1cccc(Nc2ncc(F)c(-c3ccc(F)c4ccoc34)n2)c1 [Example 2, N-{3-[(Ethylsulfonyl)methyl]phenyl}-5-fluoro-4-(4-fluoro-1-benzofuran-7-yl)pyrimidin-2-amine]
7.24	5.07	Cc1cc(CS(C)(=O)=O)cc(Nc2ncc(F)c(-c3ccc(F)c4ccoc34)n2)c1 [Example 4, 5-Fluoro-4-(4-fluoro-1-benzofuran-7-yl)-N-{3-methyl-5-[(methylsulfonyl)methyl]-phenyl}pyrimidin-2-amine]
